From US10821115B2, “Compounds that inhibit Mcl-1 protein” (priority 2017, dated 2020) come the findings set out here.

Like-named read-outs stand apart in the source and are kept apart here.

The subject of assay [1] is human multiple myeloma cell line, OPM-2. Nature of the assay: Cell viability assay (OPM-2 10 FBS), CellTiter-Glo. In kind it is cell-based. In outline:
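Steps: plate cells at 3000/well in 10% FBS growth medium, add serially diluted compound, incubate 16 h at 37 °C with 5% CO2, add detection reagent and read luminescence after 25 min. A 4-parameter logistic model gives IC50.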
Background: In ATP-based viability assays light output follows the ATP content of the culture.

The target in assay [2] is recombinant human Mcl-1 (residues 171-327) / Bim interaction (Homo sapiens (Human), UniProt Q07820). Put plainly: biochemical. In kind it is binding. The following applies: read-out: Mcl-1 HTRF IC50. (In TR-FRET formats the signal depends on donor and acceptor labels being close together.)
Where [3] appears, read: Homo sapiens, OPM-2, 16 h, read-out: OPM-2 10% FBS IC50 IP, OPM-2 cells, 10% FBS, 16 h, CellTiter-Glo.
[4] abbreviates: TR-FRET, Mcl-1(171-327) / biotin-Bim (51-76).
Setting [5] is: Homo sapiens, OPM-2, 16 h, read-out: OPM-2 10% FBS IC50 IP, OPM-2 cells, 10% FBS, 16 h incubation.
The mark [6] stands for this setting: 0.1 nM Mcl-1(171-327), 0.05 nM biotin-Bim (51-76).

Sequence of recombinant human Mcl-1 (residues 171-327) / Bim interaction (Q07820 171-327): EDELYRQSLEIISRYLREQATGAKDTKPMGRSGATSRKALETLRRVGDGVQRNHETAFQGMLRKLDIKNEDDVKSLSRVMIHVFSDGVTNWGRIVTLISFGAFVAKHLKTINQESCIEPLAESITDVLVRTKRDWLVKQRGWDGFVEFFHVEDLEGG

As a reminder, the IC50 is the concentration that gives 50% inhibition. Consider `CO[C@@]1(Cc2cc(C)on2)/C=C/C[C@H](C)[C@@H](C)S(=O)(=O)NC(=O)c2ccc3c(c2)N(C[C@@H]2CC[C@H]21)C[C@@]1(CCCc2cc(Cl)ccc21)CO3` [Example 100552, (1S,3′R,6′R,7′S,8′E,11′S,12′R)-6-chloro-7′-methoxy-11′,12′-dimethyl-7′-((5-methyl-1,2-oxazol-3-yl)methyl)-3,4-dihydro-2H,15′H-spiro[naphthalene-1,22′-[20]oxa[13]thia[1,14]diazatetracyclo [14.7.2.0~3,6~.0~19,24~]pentacosa[8,16,18,24]tetraen]-15′-one 13′,13′-dioxide], for which the IC50 in assay [1] (setting [3]) stood at 957 nM; in assay [2] (setting [4]) it was 0.065 nM.

`CO[C@]1(CN2CCN3CCOC[C@H]3C2)/C=C/C[C@H](C)[C@@H](C)S(=O)(=O)NC(=O)c2ccc3c(c2)N(C[C@@H]2CC[C@H]21)C[C@@]1(CCCc2cc(Cl)ccc21)CO3` [Example 58, (1S,3′R,6′R,7′R,8′E,11′S,12′R)-6-chloro-7′-((9aR)-hexahydropyrazino[2,1-c][1,4]oxazin-8(1H)-ylmethyl)-7′-methoxy-11′,12′-dimethyl-3,4-dihydro-2H,15′H-spiro[naphthalene-1,22′-[20]oxa[13]thia[1,14]diazatetracyclo [14.7.2.0~3,6~.0~19,24~]pentacosa[8,16,18,24]tetraen]-15′-one 13′,13′-dioxide]: the values for the IC50 in assay [1] (setting [5]) and in assay [2] (setting [6]) were 95 nM and 0.719 nM, respectively.

With `COC[C@@H](C)N(C)C(=O)C[C@]1(OC)/C=C/C[C@H](C)[C@@H](C)S(=O)(=O)NC(=O)c2ccc3c(c2)N(C[C@@H]2CC[C@H]21)C[C@@]1(CCCc2cc(Cl)ccc21)CO3` [Example 100451, 2-((1S,3′R,6′R,7′S,8′E,11′S,12′R)-6-chloro-7′-methoxy-11′,12′-dimethyl-13′,13′-dioxido-15′-oxo-3,4-dihydro-2H-spiro[naphthalene-1,22′-[20]oxa[13]thia[1,14]diazatetracyclo [14.7.2.0~3,6~.0~19,24~]pentacosa[8,16,18,24]tetraen]-7′-yl)-N-((2R)-1-methoxy-2-propanyl)-N-methylacetamide], the concentration for half-maximal inhibition (IC50) in assay [1] (setting [3]) is 412 nM; in assay [2] (setting [4]), 0.111 nM.

For `C[C@@H]1[C@@H](C)C/C=C/[C@]2(CN3CCN(C)C[C@@H]3CO2)[C@@H]2CC[C@H]2CN2C[C@@]3(CCCc4cc(Cl)ccc43)COc3ccc(cc32)C(=O)NS1(=O)=O` (single isomer, unassigned) [Example 132], the IC50 was determined as 263 nM in assay [1] (read-out: OPM-2 10% FBS IC50 IP, OPM-2 cells, 10% FBS, 16 h incubation) and 0.613 nM in assay [2] (setting [6]).

As for `C[C@@H]1[C@@H](C)CCC[C@]2(CCO2)[C@@H]2CC[C@H]2CN2C[C@@]3(CCCc4cc(Cl)ccc43)COc3ccc(cc32)C(=O)NS1(=O)=O` (single isomer, unassigned) [Example 100229], the IC50 in assay [1] (setting [3]) turned out to be 1490 nM; in assay [2] (setting [4]), 0.356 nM.

For the compound `Cc1cc(C[C@]2(O)/C=C/C[C@H](C)[C@@H](C)S(=O)(=O)NC(=O)c3ccc4c(c3)N(C[C@@H]3CC[C@H]32)C[C@@]2(CCCc3cc(Cl)ccc32)CO4)no1` [Example 100541, (1S,3′R,6′R,7′S,8′E,11′S,12′R)-6-chloro-7′-hydroxy-11′,12′-dimethyl-7′-((5-methyl-1,2-oxazol-3-yl)methyl)-3,4-dihydro-2H,15′H-spiro[naphthalene-1,22′-[20]oxa[13]thia[1,14]diazatetracyclo [14.7.2.0~3,6~.0~19,24~]pentacosa[8,16,18,24]tetraen]-15′-one 13′,13′-dioxide], the half-inhibitory concentration (IC50) worked out at 826 nM in assay [1] (setting [3]) and 0.76 nM in assay [2] (setting [4]).

With `CC(C)CO[C@@]1(CN2CCN3CCOC[C@@H]3C2)/C=C/C[C@H](C)[C@@H](C)S(=O)(=O)NC(=O)c2ccc3c(c2)N(C[C@@H]2CC[C@H]21)C[C@@]1(CCCc2cc(Cl)ccc21)CO3` [Example 349, (1S,3′R,6′R,7′S,8′E,11′S,12′R)-6-chloro-7′-((9aS)-hexahydropyrazino[2,1-c][1,4]oxazin-8(1H)-ylmethyl)-11′,12′-dimethyl-7′-(2-methylpropoxy)-3,4-dihydro-2H,15′H-spiro[naphthalene-1,22′-[20]oxa[13]thia[1,14]diazatetracyclo [14.7.2.0~3,6~.0~19,24~]pentacosa[8,16,18,24]tetraen]-15′-one 13′,13′-dioxide], the IC50 in assay [1] (setting [5]) came out at 7790 nM; in assay [2] (setting [6]) it was 1.61 nM.

Turning to `C[C@@H]1[C@@H](C)CCCC2(OCCO2)[C@@H]2CC[C@H]2CN2C[C@@]3(CCCc4cc(Cl)ccc43)COc3ccc(cc32)C(=O)NS1(=O)=O` [Example 100102, (3′R,6′R,11′S,12′R,22′S)-6″-chloro-11′,12′-dimethyl-3″,4″-dihydro-2″H,15′H-dispiro[1,3-dioxolane-2,7′-[20]oxa[13]thia[1,14]diazatetracyclo [14.7.2.0~3,6~.0~19,24~]pentacosa[16,18,24]triene-22′,1″-naphthalen]-15′-one 13′,13′-dioxide], the IC50 in assay [1] (setting [3]) worked out at 1430 nM; in assay [2] (setting [4]) it was 0.99 nM.

Regarding `CO[C@]1(CC(=O)O)/C=C/C[C@H](C)[C@@H](C)S(=O)(=O)NC(=O)c2ccc3c(c2)N(C[C@@H]2CC[C@H]21)C[C@@]1(CCCc2cc(Cl)ccc21)CO3` [Example 100306, ((1S,3′R,6′R,7′R,8′E,11′S,12′R)-6-chloro-7′-methoxy-11′,12′-dimethyl-13′,13′-dioxido-15′-oxo-3,4-dihydro-2H-spiro[naphthalene-1,22′-[20]oxa[13]thia[1,14]diazatetracyclo [14.7.2.0~3,6~.0~19,24~]pentacosa[8,16,18,24]tetraen]-7′-yl)acetic acid], the figures for the IC50 in assay [1] (setting [3]) and in assay [2] (setting [4]) were 278 nM and 0.124 nM, respectively.

On to `COC(=O)c1nc(C[C@]2(OC)/C=C/C[C@H](C)[C@@H](C)S(=O)(=O)NC(=O)c3ccc4c(c3)N(C[C@@H]3CC[C@H]32)C[C@@]2(CCCc3cc(Cl)ccc32)CO4)oc1C` [Example 100583, methyl 2-(((1S,3′R,6′R,7′S,8′E,11′S,12′R)-6-chloro-7′-methoxy-11′,12′-dimethyl-13′,13′-dioxido-15′-oxo-3,4-dihydro-2H-spiro[naphthalene-1,22′-[20]oxa[13]thia[1,14]diazatetracyclo [14.7.2.0~3,6~.0~19,24~]pentacosa[8,16,18,24]tetraen]-7′-yl)methyl)-5-methyl-1,3-oxazole-4-carboxylate], for which the IC50 in assay [1] (setting [3]) came to 411 nM; in assay [2] (setting [4]) it was 0.124 nM.

Take `CCO[C@@]1(CN2CCC(N(C)C)CC2)/C=C/C[C@H](C)[C@@H](C)S(=O)(=O)NC(=O)c2ccc3c(c2)N(C[C@@H]2CC[C@H]21)C[C@@]1(CCCc2cc(Cl)ccc21)CO3` [Example 110, (1S,3′R,6′R,7′S,8′E,11′S,12′R)-6-chloro-7′-((4-(dimethylamino)-1-piperidinyl)methyl)-7′-ethoxy-11′,12′-dimethyl-3,4-dihydro-2H,15′H-spiro[naphthalene-1,22′-[20]oxa[13]thia[1,14]diazatetracyclo [14.7.2.0~3,6~.0~19,24~]pentacosa[8,16,18,24]tetraen]-15′-one 13′,13′-dioxide]: the IC50 in assay [1] (setting [5]) is 1720 nM; in assay [2] (setting [6]), 0.505 nM.
